# Measured values as given in paper PMC6264499, “In silico identification and experimental validation of hits active against KPC-2 β-lactamase” (PLoS ONE, 2018).
# What was measured:
# Kpn 99D8 = assay: MIC of meropenem, alone or 1:1 with compounds, KPC-2 clinical strain; assay type: cell-based, K. pneumoniae; conditions: Klebsiella pneumoniae, no compound added
# Method: (§1) The antimicrobial activity of the best hits 9a and 11a and their derivatives was studied in bacterial cell cultures to investigate their ability to cross the outer membrane reaching the periplasmic space, where KPC-2 is secreted and confined in Gram negative bacteria. Compounds were tested for synergy with the β-lactam antibiotic meropenem against four K. pneumoniae clinical strains, isolated from different patients at the Hospital Universitario Son Espases, Palma de Mallorca, Spain. […] The three additional strains harbored the blaKPC-2 gene and were resistant to meropenem (Table 2). […] However, against strain Kpn 53A8 the MIC value was lowered by a factor of two when meropenem was combined with compounds 32a, 1b, 2b, 5b and 6b while in combination with compound 11a the MIC value was reduced by 4 fold.
# Kpn 53A9 = assay: as above; assay type: cell-based, K. pneumoniae; conditions: Klebsiella pneumoniae, no compound added
# Method: as §1
# Kpn 53A8 = assay: as above; assay type: cell-based, K. pneumoniae; conditions: Klebsiella pneumoniae; Kpn 53A8; no compound added
# Method: as §1
# Kpn (C-) = assay: MIC of meropenem, alone or 1:1 with compounds, control strain; assay type: cell-based, K. pneumoniae; conditions: Klebsiella pneumoniae, no compound added
# Method: as §1
# recombinant KPC-2 = molecular target: T1, recombinant KPC-2 (Klebsiella pneumoniae, UniProt Q9F663); assay: KPC-2 inhibition assay, CENTA as reporter substrate; assay type: biochemical
# T1 construct: made in house; host or cells: E. coli BL21 (DE3)
# Method: The blaKPC-2 gene was kindly provided by Prof. Sergei Vakulenko (University of Notre Dame du Lac, Indiana, USA) and cloned as already reported and transformed into competent E.coli BL21 (DE3) cells for protein expression. 50 mL of Tryptic Soy Broth (TSB) (50 mg/L kanamycin) were inoculated with fresh colonies and grown at 37°C. 4 mL of the overnight culture was used to inoculate 1.3 L of TSB (50 mg/L kanamycin) grown at 37°C with shaking to an optical density of 0.5 measured at 600 nm. Then expression of recombinant bla gene was induced by adding 1.0 mM IPTG (isopropyl-D-thiogalactopyranoside) and the cells were again allowed to grow at 20°C overnight. Bacteria were harvested by centrifugation at 4000 rpm for 20 minutes. The pelleted cells were resuspended in Tris-HCl 50 mM pH 7.4–7.5. Periplasmatic proteins were extracted as reported in the pET System Manual (TB055 10th Edition Rev. B 0403) and subsequently dialyzed in sodium acetate buffer (50 mM, pH 5.0). The protein was conveniently purified in a single step using a Macro-Prep High S resin and eluted using sodium acetate 50 mM pH 5.0 and a sodium chloride (NaCl) linear gradient from 100 to 500 mM. The purified protein was dialyzed overnight in sodium phosphate buffer 50 mM, pH 7.0 [31, 32].
# The hydrolytic activity of KPC-2 was measured using the β-lactam substrates CENTA (100 uM, KM 70 uM) or nitrocefin (114 uM, KM 36 μM) in reaction buffer consisting of 50 mM of PB at pH 7.0 at 25°C with 0.01% v/v Triton X-100 to avoid compound aggregation and promiscuous inhibition.[33] Reactions were monitored using a Beckmann DU640 spectrophotometer at […] for CENTA and 480 nm wavelength for nitrocefin [34]. The test compounds were synthesized as described below or purchased from Enamine, TimTec, Vitas-M, ChemBridge, Otava, Life Chemicals or Apollo Scientific and assayed without further purification. Compounds were dissolved in dimethyl sulfoxide (DMSO) to a concentration of 25 mM and stored at -20°C. The highest concentration at which the compounds were tested was up to 1 mM (depending on their solubility). All experiments were performed in duplicate and the error never exceeded 5%. The reaction was typically initiated by adding KPC-2 to the reaction buffer last. To control for incubation effects, protein was added to the reaction buffer first, and the reaction was initiated by the addition of reporter substrate after 10 minutes of enzyme-compound incubation.
# Fig 4 Inhibitory activity of compounds selected from virtual screening. ^[a]Assays were performed in duplicate (errors were less than 5%) with CENTA as reporter substrate (100 μM, km 70 μM). Kinetic were monitored at 25° by following the absorbance variation at λ = 405 nm. ^[b] If no IC50 has been measured, percent inhibition at the highest tested concentration is given in parentheses. For example, > 0.50 (26%) implies that the highest concentration tested was 0.50 mM; at this concentration, the enzyme was inhibited by 26%. Therefore, IC50> 0.50 mM. When % Inhibition was below 10% No Inibition (NI) is reported. ^[c]Assays were run after 10’ incubation of the inhibitor with KPC-2. Reaction was started by the addition of CENTA. […] 0 (11) | 32a: IC50 mM ^[a,b]: 1.24
# Competitive inhibition mechanism and the Ki for compound 9a was determined by Lineweaver–Burk (LB) and Dixon plots.
# [1] = Dynamic light scattering, aggregating behavior; assay type: physicochemical; conditions: dynamic light scattering (data not shown)
# Method: (§2) For compound 9a binding affinity and mode of inhibition was determined by using gradient concentrations of CENTA. […] For this compound aggregating behavior was also excluded by dynamic light scattering experiment (data not shown).
# CTX-M9 = CTX-M9 (Escherichia coli, UniProt Q9L5C8); assay: Inhibition of other class A β-lactamase CTX-M9; assay type: biochemical
# Method: as §2
# T1 sequence (Q9F663 25-293, looked up): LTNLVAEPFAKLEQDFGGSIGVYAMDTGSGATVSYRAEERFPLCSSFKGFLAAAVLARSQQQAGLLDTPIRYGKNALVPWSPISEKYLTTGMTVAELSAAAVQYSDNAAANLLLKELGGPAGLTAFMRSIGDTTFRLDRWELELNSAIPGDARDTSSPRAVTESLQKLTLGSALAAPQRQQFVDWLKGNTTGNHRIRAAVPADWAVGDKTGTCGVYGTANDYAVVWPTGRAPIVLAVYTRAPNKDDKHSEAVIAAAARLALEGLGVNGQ
# Sequence of CTX-M9 (Q9L5C8 29-291): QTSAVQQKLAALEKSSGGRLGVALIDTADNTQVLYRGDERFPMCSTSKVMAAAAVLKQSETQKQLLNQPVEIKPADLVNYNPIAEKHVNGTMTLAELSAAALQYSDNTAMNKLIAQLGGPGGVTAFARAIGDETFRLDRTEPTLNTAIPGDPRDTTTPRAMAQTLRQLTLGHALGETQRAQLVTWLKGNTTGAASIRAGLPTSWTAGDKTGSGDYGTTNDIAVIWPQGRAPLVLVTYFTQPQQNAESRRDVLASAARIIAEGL
MIC (Kpn 99D8),MIC (Kpn 53A9),MIC (Kpn 53A8),MIC (Kpn (C-)),SMILES,"IC50 (recombinant KPC-2; CENTA 100 μM, after 10' incubation of the inhibitor with KPC-2, read-out: IC50)","Ki (recombinant KPC-2; Lineweaver–Burk and Dixon plots, gradient concentrations of CENTA, read-out: Ki (determined))",ligand efficiency (LE) (recombinant KPC-2; vs KPC-2),mode of inhibition (recombinant KPC-2; vs KPC-2),aggregating behavior [1],IC50 (CTX-M9)
256 µg/mL,256 µg/mL,256 µg/mL,< 0.25 µg/mL,C[C@@H](O)[C@H]1C(=O)N2C(C(=O)O)=C(S[C@@H]3CN[C@H](C(=O)N(C)C)C3)[C@H](C)[C@H]12 [meropenem],–,–,–,–,–,–
–,–,–,–,COc1ccc2nc(C(=O)O)sc2c1 [9a],150 µM,112 µM,0.38 kcal/mol/non-hydrogen atom,competitive inhibitor,excluded,160 µM
